Source: patent US11000033B2, “Ketone or oxime compound, and herbicide” (NISSAN CHEMICAL CORPORATION, priority 2014, dated 2021)

Columns and labels:
Format in all cases: in vivo
[1] = tested on: Abutilon theophrasti; experiment: Test Example 5: herbicidal effect by foliage application, plastic box (symbol M); conditions: 3 weeks after application
How it was run: (§1)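 Greenhouse foliar test: seedlings at 14 days, grown 25° C. to 30° C. in sterilized diluvial soil; compound applied as an aqueous dilution of an emulsion; response read 3 weeks after spraying.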

[2] = tested on: Leptochloa chinensis; experiment: Test Example 3: herbicidal effect by foliage application, Wagner pot (symbol D)
How it was run: (§2)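 Herbicidal activity was rated three weeks after a foliar spray of diluted emulsion concentrate, applied at a predetermined dose to plants grown for 14 days from seed in waterlogged alluvial soil within a 25–30 °C greenhouse.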

[3] = tested on: Galium spurium; experiment: Test Example 4: herbicidal effect by soil treatment (symbol Q)
Description: Herbicidal Effect Test by Soil Treatment
Sterilized diluvial soil was placed in a plastic box having a length of 21 cm, a width of 13 cm, and a depth of 7 cm. Each of the seeds of Digitaria ciliaris, Setaria viridis, Echinochloa crus-galli var. crus-galli, Avena fatua, Alopecurus myosuroides, Lolium multiflorum Lam., Apera spica-venti, Abutilon theophrasti, Amaranthus retroflexus, Chenopodium album, Stellaria media, Galium spurium, Veronica persica, corn, soybean, rice, wheat, beet, and rapeseed was sowed in a spot-like manner and was covered with the soil of a thickness of about 1.5 cm. Subsequently, the emulsion agent of the compound present invention prepared in accordance with Formulation Example 2 was diluted with water so as to be a predetermined herbicide amount and the diluted emulsion agent was uniformly applied to the surface of the soil with a small-size spray. The plastic box was placed in a greenhouse of 25° C. to 30° C. to grow plant. 3 weeks later from the herbicide application, the effect to each plant was investigated in accordance with the criteria of Test Example 1.

[4] = tested on: rice plant; experiment: Test Example 5: effect on crop by foliage application, plastic box (symbol b); conditions: 3 weeks after application
How it was run: (§3)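 Soil: sterilized diluvial. Container: plastic box, 21 × 13 cm, 7 cm deep. Sowing: spot-like, ~1.5 cm cover. Growth: greenhouse, 25° C. to 30° C.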

[5] = tested on: beet; experiment: Test Example 4: effect on crop by soil treatment (symbol f)
How it was run: (§4)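 Diluvial soil (sterilized) in boxes; seeds placed spot-wise alongside weed species; ~1.5 cm covering soil. Greenhouse, 25–30° C.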

[6] = tested on: rapeseed; experiment: Test Example 4: effect on crop by soil treatment (symbol g)
How it was run: as §4

[7] = tested on: wheat; experiment: Test Example 5: effect on crop by foliage application, plastic box (symbol e); conditions: 3 weeks after application
How it was run: as §3

[8] = tested on: Apera spica-venti; experiment: Test Example 5: herbicidal effect by foliage application, plastic box (symbol L); conditions: 3 weeks after application
How it was run: as §1

[9] = tested on: Amaranthus retroflexus; experiment: Test Example 4: herbicidal effect by soil treatment (symbol N)
How it was run: (§5)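 Seeds were sown in sterilized diluvial soil, covered with about 1.5 cm of soil, and the soil surface was sprayed with a water-diluted emulsion of the compound at a predetermined rate. Plants grew in a greenhouse at 25° C. to 30° C.; effects were scored visually 3 weeks after application.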

[10] = tested on: rice; experiment: Test Example 4: effect on crop by soil treatment (symbol b)
How it was run: as §4

[11] = tested on: Avena fatua; experiment: Test Example 5: herbicidal effect by foliage application, plastic box (symbol I); conditions: 3 weeks after application
How it was run: as §1

[12] = tested on: Stellaria media; experiment: Test Example 5: herbicidal effect by foliage application, plastic box (symbol P); conditions: 3 weeks after application
How it was run: as §1

[13] = tested on: Monochoria vaginalis; experiment: Test Example 1: herbicidal activity, application before weed generation in submerged conditions (symbol C)
How it was run: (§6)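 Steps: alluvial soil flooded to 4 cm; weed seeds sown together; rice seedlings (2.5 leaf) transplanted; diluted emulsion applied to water surface the same day as sowing; plants grown at 25–30 °C in greenhouse; herbicidal effect rated on a 0–5 scale at 3 weeks.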

[14] = tested on: Lolium multiflorum Lam.; experiment: Test Example 4: herbicidal effect by soil treatment (symbol K)
How it was run: as §5

[15] = tested on: Cyperus difformis; experiment: Test Example 3: herbicidal effect by foliage application, Wagner pot (symbol E)
How it was run: as §2

[16] = tested on: wheat; experiment: Test Example 4: effect on crop by soil treatment (symbol e)
How it was run: as §4

[17] = tested on: Echinochloa oryzacola Vasing.; experiment: Test Example 1: herbicidal activity, application before weed generation in submerged conditions (symbol A)
How it was run: as §6

[18] = tested on: Chenopodium album; experiment: Test Example 5: herbicidal effect by foliage application, plastic box (symbol O); conditions: 320 g/ha, 3 weeks after application
How it was run: as §1

[19] = tested on: Chenopodium album; experiment: Test Example 4: herbicidal effect by soil treatment (symbol O); conditions: application herbicide amount 320 g/ha
How it was run: as §5

[20] = application herbicide amount 192 g/ha
[21] = application herbicide amount 320 g/ha
[22] = application herbicide amount 320 g/ha, Table 24

Row | Compound | M: Abutilon theophrasti, herbicidal effect (criteria 0-5) ([1]; 320 g/ha) | herbicidal effect on D (Leptochloa chinensis), grade 0-5 [2, 21] | O: Chenopodium album, herbicidal effect (criteria 0-5) [18] | Q: Galium spurium, herbicidal effect grade ([3]; 320 g/ha) | b: directly sowed rice plant, effect on crop (criteria 0-5) ([4]; 320 g/ha) | f: beet, effect grade on crop ([5]; 320 g/ha) | g: rapeseed, effect grade on crop ([6]; 320 g/ha) | e: wheat, effect on crop (criteria 0-5) ([7]; 320 g/ha) | L: Apera spica-venti, herbicidal effect (criteria 0-5) ([8]; 320 g/ha) | N: Amaranthus retroflexus, herbicidal effect grade ([9]; 320 g/ha) | b: directly sowed rice plant, effect grade on crop ([10]; 320 g/ha) | I: Avena fatua, herbicidal effect (criteria 0-5) ([11]; 320 g/ha) | P: Stellaria media, herbicidal effect (criteria 0-5) ([12]; 320 g/ha) | Herbicidal effect grade, C: Monochoria vaginalis [13, 21] | K: Lolium multiflorum Lam., herbicidal effect grade ([14]; 320 g/ha) | herbicidal effect on E, grade 0-5 [15, 21] | e: wheat, effect grade on crop ([16]; 320 g/ha) | Herbicidal effect grade, A: Echinochloa oryzacola Vasing. [17, 21] | other results
1 | CON=C(C)CC1CC(OC(=O)C2CCCO2)=C(c2c(C)cc(C)cc2C)C1=O (centres unmarked) [1-076] | – | – | – | – | – | – | – | – | – | – | – | – | – | – | – | – | – | – | M: Abutilon theophrasti, herbicidal effect (criteria 0-5) ([1]; 192 g/ha): 4 (Herbicidal ratio of 70% or higher and lower than 90%); herbicidal effect on D (Leptochloa chinensis), grade 0-5 [2, 20]: 5 (Herbicidal ratio of 90% or more (almost completely withered)); Q: Galium spurium, herbicidal effect grade ([3]; 192 g/ha): 0 (Herbicidal ratio of 5% or lower (almost no effect)); b: directly sowed rice plant, effect on crop (criteria 0-5) ([4]; 192 g/ha): 5 (Herbicidal ratio of 90% or more (almost completely withered)); f: beet, effect grade on crop ([5]; 192 g/ha): 0 (Herbicidal ratio of 5% or lower (almost no effect)); g: rapeseed, effect grade on crop ([6]; 192 g/ha): 4 (Herbicidal ratio of 70% or higher and lower than 90%); e: wheat, effect on crop (criteria 0-5) ([7]; 192 g/ha): 5 (Herbicidal ratio of 90% or more (almost completely withered)); L: Apera spica-venti, herbicidal effect (criteria 0-5) ([8]; 192 g/ha): 5 (Herbicidal ratio of 90% or more (almost completely withered)); N: Amaranthus retroflexus, herbicidal effect grade ([9]; 192 g/ha): 4 (Herbicidal ratio of 70% or higher and lower than 90%); b: directly sowed rice plant, effect grade on crop ([10]; 192 g/ha): 5 (Herbicidal ratio of 90% or more (almost completely withered)); I: Avena fatua, herbicidal effect (criteria 0-5) ([11]; 192 g/ha): 5 (Herbicidal ratio of 90% or more (almost completely withered)); P: Stellaria media, herbicidal effect (criteria 0-5) ([12]; 192 g/ha): 3 (Herbicidal ratio of 40% or higher and lower than 70%); Herbicidal effect grade, C: Monochoria vaginalis [13, 20]: 0 (Herbicidal ratio of 5% or lower (almost no effect)); K: Lolium multiflorum Lam., herbicidal effect grade ([14]; 192 g/ha): 5 (Herbicidal ratio of 90% or more (almost completely withered)); herbicidal effect on E, grade 0-5 [15, 20]: 5 (Herbicidal ratio of 90% or more (almost completely withered)); e: wheat, effect grade on crop ([16]; 192 g/ha): 4 (Herbicidal ratio of 70% or higher and lower than 90%); Herbicidal effect grade, A: Echinochloa oryzacola Vasing. [17, 20]: 4 (Herbicidal ratio of 70% or higher and lower than 90%)
2 | CON=C(C)CC1CC(OC(=O)C(CSC)=NOC)=C(c2c(C)cc(C)cc2C)C1=O (centres unmarked) [1-098] | 4 (Herbicidal ratio of 70% or higher and lower than 90%) | 5 (Herbicidal ratio of 90% or more (almost completely withered)) | 0 (Herbicidal ratio of 5% or lower (almost no effect)) | 0 (Herbicidal ratio of 5% or lower (almost no effect)) | 5 (Herbicidal ratio of 90% or more (almost completely withered)) | 0 (Herbicidal ratio of 5% or lower (almost no effect)) | 5 (Herbicidal ratio of 90% or more (almost completely withered)) | 5 (Herbicidal ratio of 90% or more (almost completely withered)) | 5 (Herbicidal ratio of 90% or more (almost completely withered)) | 4 (Herbicidal ratio of 70% or higher and lower than 90%) | 5 (Herbicidal ratio of 90% or more (almost completely withered)) | 5 (Herbicidal ratio of 90% or more (almost completely withered)) | 3 (Herbicidal ratio of 40% or higher and lower than 70%) | 4 (Herbicidal ratio of 70% or higher and lower than 90%) | 5 (Herbicidal ratio of 90% or more (almost completely withered)) | 5 (Herbicidal ratio of 90% or more (almost completely withered)) | 3 (Herbicidal ratio of 40% or higher and lower than 70%) | 5 (Herbicidal ratio of 90% or more (almost completely withered)) | –
3 | CON=C(C)CC1CC(OC(=O)N2CCOCC2)=C(c2c(C)cc(C)cc2C)C1=O (centres unmarked) [1-104] | 3 (Herbicidal ratio of 40% or higher and lower than 70%) | 5 (Herbicidal ratio of 90% or more (almost completely withered)) | 2 (Herbicidal ratio of 20% or higher and lower than 40%) | 0 (Herbicidal ratio of 5% or lower (almost no effect)) | 5 (Herbicidal ratio of 90% or more (almost completely withered)) | 0 (Herbicidal ratio of 5% or lower (almost no effect)) | 2 (Herbicidal ratio of 20% or higher and lower than 40%) | 0 (Herbicidal ratio of 5% or lower (almost no effect)) | 5 (Herbicidal ratio of 90% or more (almost completely withered)) | 0 (Herbicidal ratio of 5% or lower (almost no effect)) | 5 (Herbicidal ratio of 90% or more (almost completely withered)) | 5 (Herbicidal ratio of 90% or more (almost completely withered)) | 1 (Herbicidal ratio of 5% or higher and lower than 20%) | 1 (Herbicidal ratio of 5% or higher and lower than 20%) | 5 (Herbicidal ratio of 90% or more (almost completely withered)) | 5 (Herbicidal ratio of 90% or more (almost completely withered)) | 1 (Herbicidal ratio of 5% or higher and lower than 20%) | 5 (Herbicidal ratio of 90% or more (almost completely withered)) | –
4 | CC(CC1CC(OC(=O)COc2ccccc2)=C(c2c(C)cc(-n3cc(Cl)cn3)cc2C)C1=O)=NOCC(F)(F)F (centres unmarked) [9-012] | – | – | – | – | – | – | – | – | – | – | – | – | – | – | – | – | – | – | M: Abutilon theophrasti, herbicidal effect grade ([1]; 320 g/ha): 1 (Herbicidal ratio of 5% or higher and lower than 20%); D (Leptochloa chinensis) herbicidal effect grade [2, 22]: 5 (Herbicidal ratio of 90% or more (almost completely withered)); O: Chenopodium album, herbicidal effect grade [18]: 2 (Herbicidal ratio of 20% or higher and lower than 40%); b: directly sowed rice plant, effect on crop grade ([4]; 320 g/ha): 5 (Herbicidal ratio of 90% or more (almost completely withered)); Effect on crop grade, f: beet [5, 21]: 0 (Herbicidal ratio of 5% or lower (almost no effect)); Effect on crop grade, g: rapeseed [6, 21]: 0 (Herbicidal ratio of 5% or lower (almost no effect)); e: wheat, effect on crop grade ([7]; 320 g/ha): 2 (Herbicidal ratio of 20% or higher and lower than 40%); L: Apera spica-venti, herbicidal effect grade ([8]; 320 g/ha): 5 (Herbicidal ratio of 90% or more (almost completely withered)); Herbicidal effect grade, N: Amaranthus retroflexus [9, 21]: 0 (Herbicidal ratio of 5% or lower (almost no effect)); Effect on crop grade, b: directly sowed rice plant [10, 21]: 5 (Herbicidal ratio of 90% or more (almost completely withered)); Herbicidal effect grade, O: Chenopodium album [19]: 0 (Herbicidal ratio of 5% or lower (almost no effect)); I: Avena fatua, herbicidal effect grade ([11]; 320 g/ha): 5 (Herbicidal ratio of 90% or more (almost completely withered)); P: Stellaria media, herbicidal effect grade ([12]; 320 g/ha): 4 (Herbicidal ratio of 70% or higher and lower than 90%); C (Monochoria vaginalis) herbicidal effect grade [13, 21]: 2 (Herbicidal ratio of 20% or higher and lower than 40%); Herbicidal effect grade, K: Lolium multiflorum Lam. [14, 21]: 5 (Herbicidal ratio of 90% or more (almost completely withered)); E herbicidal effect grade [15, 22]: 5 (Herbicidal ratio of 90% or more (almost completely withered)); Effect on crop grade, e: wheat [16, 21]: 0 (Herbicidal ratio of 5% or lower (almost no effect)); A (Echinochloa oryzacola Vasing.) herbicidal effect grade [17, 21]: 5 (Herbicidal ratio of 90% or more (almost completely withered))
